In US20240197890A1, “FLAVONE DERIVATIVES AND USES IN TARGETING CK2-MEDIATED DISEASES AND CONDITIONS” (Salk Institute for Biological Studies, priority 2020, published 2024):

Key:
[1] = target: T1, recombinant human CK2a1 kinase (Homo sapiens, UniProt P68400); experiment: In vitro kinase assay (PhosphoSens, Cysteine-Sox sensor peptide); assay type: biochemical; conditions: FIG. 4A
T1 construct: purchased Thermo Fisher PV3248
Experimental: Kinase assays. In vitro kinase assays were run using the Cysteine-Sox-Kinase Sensor AQT0696, 96 assay Kit (AssayQuant Tech, CSKS-AQT0696). […] Slopes corresponding to linear reaction rates were obtained for each compound concentration (RFU/sec), normalized to DMSO controls, and IC50 values were determined by applying the dose response non-linear regression model in GraphPad Prism. For kinase assays using postmortem brain tissue lysates, brain tissues were homogenized at 4° C. using a Bullet Blender (Next Advance) in kinase buffer (20 mM HEPES 7.4 pH, 150 mM NaCl, 1% Triton-X, 1 mM EDTA, 1 mM EGTA plus Halt Protease and Phosphase Inhibitor Cocktail). After sonication and clarification, protein concentration was measured by BCA Assay. CK2 activity was measured as described above, except lysates were used instead of purified kinase at 2 μL/well (˜0.3-0.4 ug protein per reaction). […] Patient lysates were individually preincubated with 20 μM CX4945 for 30 min at room temperature before initiating kinase kinetic assays.

[2] = tested on: IL-6, IL-8, TNF-α and MCP-1 in primary human cerebellar astrocytes (HCA); experiment: Flow-cytometry assay of intracellular cytokine production in IL1-β-treated astrocytes; assay type: cell-based
Experimental: Flow cytometry. For each well of HCA in a 6-well plate, 2 mL of fresh media with GolgiPLUG (BD #555029, 1:1000) and GolgiSTOP (BD #554724, 1:1000) with 20 μM compound or vehicle (DMSO) and IL1-β 10 ng/mL or DPBS was added. The cells were incubated for 5 h at 37° C. Cells were collected with TrypLE and plated into a 96-well V-bottom plate for staining. The plate was centrifuged for 5 min, 1300 rpm, 4° C. to pellet cells, which were subsequently resuspended in 100 μl DPBS with 1 μl Zombie Violet (Biolegend #423113) and 5 μl Human Trustain FC block (Biolegend #422302) per well for 15 min at room temperature in the dark. The plate was centrifuged, supernatant was aspirated, and the cells were washed with 100 μl/well DPBS. Cells were fixed with 100 μl/well of Cytofix/Cytoperm (BD) for 20 min at 4° C. The plate was centrifuged, supernatant was aspirated, and cells were resuspended in 100 μl Permwash (BD) and incubated for 15 min at 4° C. The plate was centrifuged, supernatant was aspirated, and cells were incubated with 100 μl/well of Ab mix or isotype mix in Permwash (see below) for 20 min at 4° C., followed by centrifugation and 2× PermWash washes. The cells were resuspended in 100 ul DPBS and transferred to FACS tubes containing 200 ul of PBS (total volume per tube 300 μl) for analysis on FACS Analyzers (LSRII or Fortessa).
Primary human cerebellar astrocytes (HCA) were co-treated with 20 μM of each compound or vehicle (DMSO), 10 ng/mL IL1-β, and a protein transport inhibitor for 6 hours, and then processed for intracellular staining of pro-inflammatory cytokines IL-6, IL-8, TNF-α, and MCP-1. […]; in vitro IC50 values are for CK2 as reported in the literature).

[3] = tested on: LPS-induced cytokine release in human iPSC-derived microglia; experiment: Cytokine release assay in LPS-stimulated iPSC-derived microglia; assay type: cell-based; conditions: 20 μM, 5 hours, panel of 36 cytokines
Experimental: Cytokine release assay. […] Subsequently, media cleared of cells and debris was collected, snap-frozen and stored at -80 C until processing with the Human Cytokine Array kit (R&D Systems, Catalog #ARY005). Briefly, media was diluted in Array Buffer 4 and incubated with a cocktail of biotinylated detection antibodies for 1 h at room temperature with rocking. The resulting immunocomplexes were incubated with nitrocellulose membranes spotted with capture antibodies overnight at 4 C (see below for full list of targets). The membranes were washed 4× with Wash Buffer, then incubated with IRDye 800CW Streptavidin for 30 minutes at room temperature (1:2000 in Array Buffer 5, LI-COR #926-32230). The membranes were washed 4× and imaged with an Odyssey CLx instrument. Intensity for each spot was quantified with ImageStudio. Technical duplicate values for each target were averaged, and we determined differential cytokine release by microglia exposed to LPS+vehicle versus vehicle only (n=2 biological replicates, two-tailed t-tests, P<0.05).

CK2 Y255 = experiment: Immunofluorescence of CK2 Y255 phosphorylation in nuclei of primary human astrocytes; assay type: cell-based; conditions: 20 μM, 5 h
Experimental: Immunotluorescence. […] After treatment, cells were fixed with 4% paraformaldehyde solution for 20 min at room temperature and washed 3× with DPBS for 10 min each. The cells were permeabilized using 5% horse serum and 10% Triton X in DPBS for 15 min at room temperature and blocked with 5% horse serum in PBS for 30 min at room temperature. Cells were incubated with primary antibodies in blocking buffer either overnight at 4° C. or for 2 hours at room temperature. After incubation, cells were washed 3× with PBS, blocked using 5% horse serum in PBS for 30 min at room temperature, and incubated with Cy3 red-labeled or AF488 green-labeled secondary antibodies diluted in blocking buffer for 1 hour at room temperature. The cells were washed once with PBS for 10 min, then counter-stained with DAPI. The cells were washed 3× with PBS and mounted with glass coverslips and Immu-Mount solution. Images were obtained with the Zeiss fluorescent microscope. […]

[4] = tested on: iGluta neurons co-cultured with BD or CT astrocytes; experiment: Neuronal activity of iGluta neurons co-cultured with pretreated astrocytes; assay type: cell-based, human; conditions: BD astrocytes pretreated 5 h with IL1β and 20 μM compound, compared to vehicle
From the text: Activity of CT astrocytes is also renormalized (C+vs. D+).

T1 sequence (P68400 whole entry): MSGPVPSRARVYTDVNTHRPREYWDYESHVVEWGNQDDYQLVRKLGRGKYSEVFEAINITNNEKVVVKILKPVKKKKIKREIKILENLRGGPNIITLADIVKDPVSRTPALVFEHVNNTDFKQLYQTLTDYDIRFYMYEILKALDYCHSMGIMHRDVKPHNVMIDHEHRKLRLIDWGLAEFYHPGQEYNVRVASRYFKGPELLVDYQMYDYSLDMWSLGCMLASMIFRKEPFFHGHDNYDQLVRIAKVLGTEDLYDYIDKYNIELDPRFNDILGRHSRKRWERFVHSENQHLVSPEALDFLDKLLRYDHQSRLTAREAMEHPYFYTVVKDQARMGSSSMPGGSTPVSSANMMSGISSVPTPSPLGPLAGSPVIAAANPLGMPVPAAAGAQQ

## COc1cc(-c2cc(=O)c3c(O)cc(O)cc3o2)ccc1O [CHR, chrysoeriol]
[1]
  inhibition of CK2a1 in vitro (activity class in words): active
[2]; 20 μM, human astrocytes
  suppression of IL1-β-induced IL-6, IL-8, TNF-α and MCP-1 cytokine upregulation: strong suppressive activity
[2]; at 20 μM, FIG. 5A
  summary of SAR data, activity class: active
[3]
  release of LPS-induced pro-inflammatory cytokines: significantly blocked
CK2 Y255
  pCK2/CK2 in nuclei: reduced
[4]
  neuronal activity (mean firing rate): increased
